Test results: patent USRE38117E1, “Trioxane dimer compound having antiproliferative and antitumor activities” (Hauser, Inc., priority 1995, dated 2003)

Assays:
Type in all cases: cell-based
NCI-H460 = assay: NCI 60 cell line screen (SRB), Non-Small Cell Lung Cancer
CAKI-1 = assay: NCI 60 cell line screen (SRB), Renal Cancer; conditions: CAKI-1 (Renal Cancer)
SF-268 = assay: NCI 60 cell line screen (SRB), CNS Cancer; conditions: SF-268 (CNS Cancer)
SK-OV-3 = assay: NCI 60 cell line screen (SRB), Ovarian Cancer; conditions: SK-OV-3 (Ovarian Cancer)
K-562 = assay: NCI 60 cell line screen (SRB), Leukemia; conditions: K-562 (Leukemia)
MCF7/ADR-RES = assay: NCI 60 cell line screen (SRB), Breast Cancer
SK-MEL-28 = assay: NCI 60 cell line screen (SRB), Melanoma; conditions: SK-MEL-28 (Melanoma)
MOLT-4 = assay: NCI 60 cell line screen (SRB), Leukemia; conditions: MOLT-4 (Leukemia)
MALME-3M = assay: NCI 60 cell line screen (SRB), Melanoma; conditions: MALME-3M (Melanoma)
MDA-MB-435 = assay: NCI 60 cell line screen (SRB), Breast Cancer; conditions: MDA-MB-435 (Breast Cancer)
PC-3 = assay: NCI 60 cell line screen (SRB), Prostate Cancer; conditions: PC-3 (Prostate Cancer)
UACC-62 = assay: NCI 60 cell line screen (SRB), Melanoma; conditions: UACC-62 (Melanoma)
ACHN = assay: NCI 60 cell line screen (SRB), Renal Cancer
MDA-MB231/ATCC = assay: NCI 60 cell line screen (SRB), Breast Cancer
OVCAR-8 = assay: NCI 60 cell line screen (SRB), Ovarian Cancer; conditions: OVCAR-8 (Ovarian Cancer)
UO-31 = assay: NCI 60 cell line screen (SRB), Renal Cancer; conditions: UO-31 (Renal Cancer)
BT-549 = assay: NCI 60 cell line screen (SRB), Breast Cancer; conditions: BT-549 (Breast Cancer)
SF-295 = assay: NCI 60 cell line screen (SRB), CNS Cancer; conditions: SF-295 (CNS Cancer)
MCF7 = assay: NCI 60 cell line screen (SRB), Breast Cancer
OVCAR-3 = assay: NCI 60 cell line screen (SRB), Ovarian Cancer; conditions: OVCAR-3 (Ovarian Cancer)
HOP-62 = assay: NCI 60 cell line screen (SRB), Non-Small Cell Lung Cancer; conditions: HOP-62 (Non-Small Cell Lung Cancer)
SW-620 = assay: NCI 60 cell line screen (SRB), Colon Cancer; conditions: SW-620 (Colon Cancer)
SR = assay: NCI 60 cell line screen (SRB), Leukemia
IGROVI = assay: NCI 60 cell line screen (SRB), Ovarian Cancer
HCT-116 = assay: NCI 60 cell line screen (SRB), Colon Cancer; conditions: HCT-116 (Colon Cancer)
LOX IMVI = assay: NCI 60 cell line screen (SRB), Melanoma
RPMI-8226 = assay: NCI 60 cell line screen (SRB), Leukemia; conditions: RPMI-8226 (Leukemia)
NCI-H226 = assay: NCI 60 cell line screen (SRB), Non-Small Cell Lung Cancer
OVCAR-5 = assay: NCI 60 cell line screen (SRB), Ovarian Cancer; conditions: OVCAR-5 (Ovarian Cancer)
NCI-H23 = assay: NCI 60 cell line screen (SRB), Non-Small Cell Lung Cancer
60 cell line panel = assay: NCI 60 cell line screen, values over the whole panel; conditions: mean value over the cell line panel

SMILES: COC1OC2(C)CCC3CCCC(CCOCCC4CCCC5CCC6(C)OOC45C(OC)O6)C31OO2 (centres unmarked) [Compound 6, Trioxane Ether Dimer]
- Log10GI50 (NCI-H460): −6.23 M
- Log10LC50 (NCI-H460): >−4.00 M
- Log10TGI (NCI-H460): >−4.00 M
- Log10GI50 (CAKI-1): −5.44 M
- Log10LC50 (CAKI-1): >−4.00 M
- Log10TGI (CAKI-1): >−4.00 M
- Log10GI50 (SF-268): −5.07 M
- Log10LC50 (SF-268): >−4.00 M
- Log10TGI (SF-268): >−4.00 M
- Log10LC50 (SK-OV-3): >−4.00 M
- Log10TGI (SK-OV-3): >−4.00 M
- Log10GI50 (K-562): −6.75 M
- Log10LC50 (K-562): >−4.00 M
- Log10TGI (K-562): >−4.00 M
- Log10GI50 (MCF7/ADR-RES): −6.13 M
- Log10LC50 (MCF7/ADR-RES): >−4.00 M
- Log10TGI (MCF7/ADR-RES): >−4.00 M
- Log10GI50 (SK-MEL-28): −4.24 M
- Log10LC50 (SK-MEL-28): >−4.00 M
- Log10TGI (SK-MEL-28): >−4.00 M
- Log10GI50 (MOLT-4): −6.27 M
- Log10LC50 (MOLT-4; listed as Ether Dimer): >−4.00 M
- Log10TGI (MOLT-4; listed as Ether Dimer): >−4.00 M
- Log10LC50 (MOLT-4; listed as either dimer): greater than −400. M
- Log10TGI (MOLT-4; listed as ether dimer): 4.50 M
- Log10GI50 (MALME-3M): −5.69 M
- Log10LC50 (MALME-3M): >−4.00 M
- Log10TGI (MALME-3M): >−4.00 M
- Log10GI50 (MDA-MB-435): −6.38 M
- Log10LC50 (MDA-MB-435): >−4.00 M
- Log10TGI (MDA-MB-435): >−4.00 M
- Log10GI50 (PC-3): −7.85 M
- Log10LC50 (PC-3): −4.00 M
- Log10TGI (PC-3): −4.75 M
- Log10GI50 (UACC-62): −6.46 M
- Log10LC50 (UACC-62): >−4.00 M
- Log10TGI (UACC-62): >−4.00 M
- Log10GI50 (ACHN): −5.99 M
- Log10LC50 (ACHN): >−4.00 M
- Log10TGI (ACHN): >−4.00 M
- Log10GI50 (MDA-MB231/ATCC): −5.25 M
- Log10LC50 (MDA-MB231/ATCC): >−4.00 M
- Log10TGI (MDA-MB231/ATCC): >−4.00 M
- Log10GI50 (OVCAR-8): −6.33 M
- Log10LC50 (OVCAR-8): >−4.00 M
- Log10TGI (OVCAR-8): >−4.00 M
- Log10GI50 (UO-31): −6.37 M
- Log10LC50 (UO-31): −4.38 M
- Log10GI50 (BT-549): −5.89 M
- Log10LC50 (BT-549): >−4.00 M
- Log10TGI (BT-549): >−4.00 M
- Log10GI50 (SF-295): −5.61 M
- Log10LC50 (SF-295): >−4.00 M
- Log10TGI (SF-295): >−4.00 M
- Log10GI50 (MCF7): −6.37 M
- Log10LC50 (MCF7): >−4.00 M
- Log10TGI (MCF7): >−4.00 M
- Log10GI50 (OVCAR-3): −6.10 M
- Log10LC50 (OVCAR-3): >−4.00 M
- Log10TGI (OVCAR-3): >−4.00 M
- Log10GI50 (HOP-62): −4.92 M
- Log10LC50 (HOP-62): >−4.00 M
- Log10TGI (HOP-62): >−4.00 M
- Log10GI50 (SW-620): −6.66 M
- Log10LC50 (SW-620): >−4.00 M
- Log10TGI (SW-620): >−4.00 M
- Log10GI50 (SR): −7.19 M
- Log10LC50 (SR): >−4.00 M
- Log10TGI (SR): −5.93 M
- Log10GI50 (IGROVI): −5.37 M
- Log10LC50 (IGROVI): >−4.00 M
- Log10TGI (IGROVI): −4.13 M
- Log10GI50 (HCT-116): −6.98 M
- Log10LC50 (HCT-116): >−4.00 M
- Log10TGI (HCT-116): >−4.00 M
- Log10GI50 (LOX IMVI): −6.52 M
- Log10LC50 (LOX IMVI): −4.33 M
- Log10TGI (LOX IMVI): −4.83 M
- Log10GI50 (RPMI-8226): −6.69 M
- Log10LC50 (RPMI-8226): >−4.00 M
- Log10TGI (RPMI-8226): −5.47 M
- Log10GI50 (NCI-H226): −5.36 M
- Log10LC50 (NCI-H226): >−4.00 M
- Log10TGI (NCI-H226): >−4.00 M
- Log10GI50 (OVCAR-5): −6.39 M
- Log10LC50 (OVCAR-5): >−4.00 M
- Log10TGI (OVCAR-5): >−4.00 M
- Log10GI50 (NCI-H23): −6.34 M
- Log10LC50 (NCI-H23): >−4.00 M
- Log10TGI (NCI-H23): >−4.00 M
- Log10LC50 MG MID (60 cell line panel): −4.05 M
- Log10TGI MG MID (60 cell line panel): −4.26 M
